{
  "source": "ChEMBL document CHEMBL1201862",
  "about": "“PubChem BioAssay data set” (2004)",
  "key": {"[1]": {"biological_target": "Serine/threonine-protein phosphatase (Candida dubliniensis (strain CD36 / CBS 7987 / NCPF 3949 / NRRLY-17841) (Yeast), UniProt B9W6M3)", "sequence (B9W6M3 whole entry)": "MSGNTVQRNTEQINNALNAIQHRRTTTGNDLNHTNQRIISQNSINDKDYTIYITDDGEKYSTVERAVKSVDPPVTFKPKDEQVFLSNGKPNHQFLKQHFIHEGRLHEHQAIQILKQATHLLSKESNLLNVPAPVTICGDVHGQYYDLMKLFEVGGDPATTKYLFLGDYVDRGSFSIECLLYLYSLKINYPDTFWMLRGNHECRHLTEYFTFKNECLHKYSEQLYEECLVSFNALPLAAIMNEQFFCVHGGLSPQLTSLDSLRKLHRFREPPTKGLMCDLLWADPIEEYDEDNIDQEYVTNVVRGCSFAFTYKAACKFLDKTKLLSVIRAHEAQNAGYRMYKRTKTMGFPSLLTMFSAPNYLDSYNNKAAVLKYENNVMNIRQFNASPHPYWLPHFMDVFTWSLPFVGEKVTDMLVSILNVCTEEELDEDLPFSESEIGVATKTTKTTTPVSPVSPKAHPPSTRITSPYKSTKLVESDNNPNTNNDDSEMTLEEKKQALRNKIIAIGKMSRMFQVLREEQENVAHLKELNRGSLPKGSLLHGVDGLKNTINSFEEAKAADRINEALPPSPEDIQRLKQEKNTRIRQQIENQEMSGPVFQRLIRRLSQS", "assay": "calcineurin pathway inhibitors in yeast reporter, dose response, S. cerevisiae, CDRE-lacZ, luminescence, secondary (AID 2388);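 note: yeast reporter cells carrying a calcineurin-responsive lacZ construct stimulated with calcium chloride; luminescent beta-galactosidase reporter signal in whole cells rather than isolated phosphatase activity; potency for inhibition where a drop in reporter signal means calcineurin blockade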", "type": "functional, cell-based"}, "Bcl-2-related protein A1": {"biological_target": "T1, Bcl-2-related protein A1 (Mus musculus, UniProt Q07440)", "T1 sequence (Q07440 whole entry)": "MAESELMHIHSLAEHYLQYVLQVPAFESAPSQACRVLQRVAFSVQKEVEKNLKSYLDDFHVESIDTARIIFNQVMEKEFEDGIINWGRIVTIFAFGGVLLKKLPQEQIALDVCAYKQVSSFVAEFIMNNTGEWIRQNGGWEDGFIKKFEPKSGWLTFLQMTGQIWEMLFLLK", "type": "functional"}, "[2]": {"biological_target": "T2, Ubiquitin-conjugating enzyme E2 N (Homo sapiens, UniProt P61088)", "T2 sequence (P61088 whole entry)": "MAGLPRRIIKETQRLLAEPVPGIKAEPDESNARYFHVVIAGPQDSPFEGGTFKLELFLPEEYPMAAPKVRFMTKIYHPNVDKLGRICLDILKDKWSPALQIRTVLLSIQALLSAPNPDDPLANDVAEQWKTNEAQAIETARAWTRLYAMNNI", "type": "functional"}, "[3]": {"biological_target": "T2, Ubiquitin-conjugating enzyme E2 N", "type": "functional", "remark": "listed apart in the source"}, "[4]": {"biological_target": "ATP-dependent molecular chaperone HSP82 (Candida albicans (strain WO-1) (Yeast), UniProt C4YTQ8)", "sequence (C4YTQ8 whole entry)": "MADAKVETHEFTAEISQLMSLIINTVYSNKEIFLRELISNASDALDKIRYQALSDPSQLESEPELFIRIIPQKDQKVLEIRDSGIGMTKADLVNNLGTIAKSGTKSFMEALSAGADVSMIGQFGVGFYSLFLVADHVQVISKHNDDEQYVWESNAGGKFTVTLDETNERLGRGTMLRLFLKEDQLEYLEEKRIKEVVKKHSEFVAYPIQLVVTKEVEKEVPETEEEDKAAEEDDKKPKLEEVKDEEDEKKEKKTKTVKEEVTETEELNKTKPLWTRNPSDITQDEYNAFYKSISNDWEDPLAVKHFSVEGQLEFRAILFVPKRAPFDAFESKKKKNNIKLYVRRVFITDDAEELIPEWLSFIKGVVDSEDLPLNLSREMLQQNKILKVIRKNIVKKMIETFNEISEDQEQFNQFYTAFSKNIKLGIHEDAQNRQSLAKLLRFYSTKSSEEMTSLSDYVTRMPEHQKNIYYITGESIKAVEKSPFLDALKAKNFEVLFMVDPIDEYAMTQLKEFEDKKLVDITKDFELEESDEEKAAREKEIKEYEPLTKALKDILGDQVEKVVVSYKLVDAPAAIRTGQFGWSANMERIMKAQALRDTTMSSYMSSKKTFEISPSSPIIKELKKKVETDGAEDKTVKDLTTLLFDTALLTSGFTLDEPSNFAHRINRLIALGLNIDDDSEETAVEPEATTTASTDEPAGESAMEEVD", "assay": "loss of DOC-induced GRE-beta-galactosidase reporter signal, dose response, Hsp90 inhibitor project, S. cerevisiae, luminescence (AID 2400);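 note: beta-galactosidase luminescence from glucocorticoid response element reporter as proxy for Hsp90 function; inhibitor potency where signal loss means Hsp90 inhibition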", "type": "functional, cell-based"}, "[5]": {"biological_target": "T3, Heat shock 70 kDa protein 1A (Homo sapiens, UniProt P0DMV8)", "T3 sequence (P0DMV8 whole entry)": "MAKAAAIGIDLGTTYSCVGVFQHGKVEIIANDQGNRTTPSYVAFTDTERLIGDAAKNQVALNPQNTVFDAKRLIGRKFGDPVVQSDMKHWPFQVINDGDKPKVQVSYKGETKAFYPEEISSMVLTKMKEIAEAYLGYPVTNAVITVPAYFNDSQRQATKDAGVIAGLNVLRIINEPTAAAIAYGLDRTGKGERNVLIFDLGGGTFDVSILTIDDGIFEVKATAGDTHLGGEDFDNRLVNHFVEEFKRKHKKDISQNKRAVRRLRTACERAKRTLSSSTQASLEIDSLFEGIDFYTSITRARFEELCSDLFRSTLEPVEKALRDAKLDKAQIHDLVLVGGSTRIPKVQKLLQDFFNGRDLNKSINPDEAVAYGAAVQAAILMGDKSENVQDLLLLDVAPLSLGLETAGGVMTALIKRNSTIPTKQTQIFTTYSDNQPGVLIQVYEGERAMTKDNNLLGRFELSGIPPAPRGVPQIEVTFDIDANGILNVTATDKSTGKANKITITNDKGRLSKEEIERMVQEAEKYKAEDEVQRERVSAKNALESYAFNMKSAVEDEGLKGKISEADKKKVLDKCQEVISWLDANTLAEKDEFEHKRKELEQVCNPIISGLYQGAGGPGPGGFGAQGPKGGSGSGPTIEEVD", "assay": "Hsp70 inhibitors, biochemical, TR-FRET (AID 786)"}, "[6]": {"biological_target": "T4, RNA-binding protein pos-1 (Caenorhabditis elegans, UniProt G5EF15)", "T4 sequence (G5EF15 whole entry)": "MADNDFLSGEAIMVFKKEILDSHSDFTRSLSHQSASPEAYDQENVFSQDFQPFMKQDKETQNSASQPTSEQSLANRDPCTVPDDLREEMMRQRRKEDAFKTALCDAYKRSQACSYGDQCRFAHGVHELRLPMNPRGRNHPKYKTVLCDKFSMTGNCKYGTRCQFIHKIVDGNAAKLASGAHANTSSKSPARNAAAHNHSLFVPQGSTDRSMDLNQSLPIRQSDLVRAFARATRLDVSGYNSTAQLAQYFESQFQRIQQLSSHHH", "assay": "inhibitors of POS-1/mex-3 RNA binding, dose response, biochemical, fluorescence polarization (AID 1964);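 note: purified POS-1 fused to maltose binding protein made in E. coli; potency of compounds blocking POS-1 binding to fluorescent RNA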"}, "[7]": {"biological_target": "T3, Heat shock 70 kDa protein 1A", "assay": "Hsp70 inhibitors, probe displacement, primary screen, biochemical, fluorescence polarization (AID 583)"}, "[8]": {"biological_target": "T5, Zinc finger protein mex-5 (Caenorhabditis elegans, UniProt Q9XUB2)", "T5 sequence (Q9XUB2 whole entry)": "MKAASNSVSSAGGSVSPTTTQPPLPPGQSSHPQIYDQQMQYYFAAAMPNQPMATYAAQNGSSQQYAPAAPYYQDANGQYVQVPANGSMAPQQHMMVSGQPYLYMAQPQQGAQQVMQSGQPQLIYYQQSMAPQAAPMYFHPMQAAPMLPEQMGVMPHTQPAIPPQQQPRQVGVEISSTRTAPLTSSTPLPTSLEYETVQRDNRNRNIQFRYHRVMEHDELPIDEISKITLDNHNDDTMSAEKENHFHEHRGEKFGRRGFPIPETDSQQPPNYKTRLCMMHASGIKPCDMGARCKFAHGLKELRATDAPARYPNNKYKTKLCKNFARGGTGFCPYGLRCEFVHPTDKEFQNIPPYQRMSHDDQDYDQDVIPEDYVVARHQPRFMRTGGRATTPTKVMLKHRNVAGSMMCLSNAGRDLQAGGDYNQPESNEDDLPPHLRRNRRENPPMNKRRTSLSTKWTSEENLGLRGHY", "assay": "MEX-5/TCR-2 RNA interaction inhibitors, dose response, biochemical, C. elegans, fluorescence polarization (AID 1960)"}, "Large T antigen": {"biological_target": "Large T antigen (Simian virus 40, UniProt P03070)", "sequence (P03070 whole entry)": "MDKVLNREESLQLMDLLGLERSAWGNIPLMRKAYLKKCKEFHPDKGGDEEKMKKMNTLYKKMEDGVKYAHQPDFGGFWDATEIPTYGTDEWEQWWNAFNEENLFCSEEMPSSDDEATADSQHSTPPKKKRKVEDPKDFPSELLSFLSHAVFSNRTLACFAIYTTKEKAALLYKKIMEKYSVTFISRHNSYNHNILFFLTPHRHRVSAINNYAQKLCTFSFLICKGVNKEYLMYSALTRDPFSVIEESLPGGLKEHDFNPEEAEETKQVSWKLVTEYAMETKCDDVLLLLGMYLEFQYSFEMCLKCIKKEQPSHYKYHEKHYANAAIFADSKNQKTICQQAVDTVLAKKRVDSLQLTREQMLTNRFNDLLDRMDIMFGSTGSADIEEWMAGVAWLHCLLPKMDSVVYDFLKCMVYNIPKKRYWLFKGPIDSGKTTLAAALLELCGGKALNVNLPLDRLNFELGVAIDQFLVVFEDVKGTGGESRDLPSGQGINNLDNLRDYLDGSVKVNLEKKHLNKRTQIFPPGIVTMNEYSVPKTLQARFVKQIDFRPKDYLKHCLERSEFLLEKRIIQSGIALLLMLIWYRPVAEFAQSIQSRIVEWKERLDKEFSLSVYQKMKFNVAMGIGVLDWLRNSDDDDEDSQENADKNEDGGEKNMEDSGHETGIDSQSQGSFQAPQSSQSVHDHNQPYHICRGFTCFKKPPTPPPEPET", "type": "functional, Betapolyomavirus macacae"}, "[9]": {"biological_target": "Induced myeloid leukemia cell differentiation protein Mcl-1 (Homo sapiens, UniProt Q07820)", "sequence (Q07820 whole entry)": "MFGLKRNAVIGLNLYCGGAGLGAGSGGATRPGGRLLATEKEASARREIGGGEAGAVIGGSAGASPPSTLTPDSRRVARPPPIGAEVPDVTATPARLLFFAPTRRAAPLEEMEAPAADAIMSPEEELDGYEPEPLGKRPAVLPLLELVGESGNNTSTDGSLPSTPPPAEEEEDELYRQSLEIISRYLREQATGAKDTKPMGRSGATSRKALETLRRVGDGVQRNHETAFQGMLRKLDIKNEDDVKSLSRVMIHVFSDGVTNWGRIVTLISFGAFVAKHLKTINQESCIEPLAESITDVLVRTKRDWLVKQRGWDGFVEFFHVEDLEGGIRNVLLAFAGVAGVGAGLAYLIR", "type": "functional"}, "ORF 73": {"biological_target": "ORF 73 (Human herpesvirus 8, UniProt O40947)", "sequence (O40947 whole entry)": "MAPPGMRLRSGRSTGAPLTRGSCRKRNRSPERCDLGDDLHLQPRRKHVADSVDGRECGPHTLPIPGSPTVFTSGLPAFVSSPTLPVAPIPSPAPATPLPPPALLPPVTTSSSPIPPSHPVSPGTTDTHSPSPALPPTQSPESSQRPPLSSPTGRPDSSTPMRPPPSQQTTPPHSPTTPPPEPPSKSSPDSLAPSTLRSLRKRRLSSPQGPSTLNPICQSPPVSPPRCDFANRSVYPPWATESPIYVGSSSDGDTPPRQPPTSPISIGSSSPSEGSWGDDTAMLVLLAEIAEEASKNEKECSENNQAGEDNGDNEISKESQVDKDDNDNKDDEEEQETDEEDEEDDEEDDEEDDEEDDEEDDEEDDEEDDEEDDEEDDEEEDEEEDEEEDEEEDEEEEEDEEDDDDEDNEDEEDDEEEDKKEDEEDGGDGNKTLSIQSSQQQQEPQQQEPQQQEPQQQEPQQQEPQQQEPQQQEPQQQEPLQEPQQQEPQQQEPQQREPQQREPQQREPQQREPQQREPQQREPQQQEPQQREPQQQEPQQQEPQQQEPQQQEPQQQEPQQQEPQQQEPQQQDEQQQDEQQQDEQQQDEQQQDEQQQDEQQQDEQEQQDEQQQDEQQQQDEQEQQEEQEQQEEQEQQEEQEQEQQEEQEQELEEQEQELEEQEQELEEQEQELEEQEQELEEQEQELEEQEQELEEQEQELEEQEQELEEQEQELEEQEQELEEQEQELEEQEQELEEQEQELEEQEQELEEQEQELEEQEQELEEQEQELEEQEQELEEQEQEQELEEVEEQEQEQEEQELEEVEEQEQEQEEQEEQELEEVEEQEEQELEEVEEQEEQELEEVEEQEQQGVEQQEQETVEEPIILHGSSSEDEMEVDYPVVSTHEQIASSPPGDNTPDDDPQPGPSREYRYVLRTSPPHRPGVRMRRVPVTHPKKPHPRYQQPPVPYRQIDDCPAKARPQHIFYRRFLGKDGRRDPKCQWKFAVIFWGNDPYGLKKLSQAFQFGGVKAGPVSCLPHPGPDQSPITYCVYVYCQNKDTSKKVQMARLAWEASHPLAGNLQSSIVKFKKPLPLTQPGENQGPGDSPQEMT", "assay": "inhibitors of C-LANA binding to LBS DNA, dose response, biochemical, fluorescence polarization, cherry-picked samples (AID 504725);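 note: fluorescence polarization of a labeled DNA duplex reporting LANA DNA binding; potency is for inhibitors that block LANA binding to the DNA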", "set-up": "species or system Human gammaherpesvirus 8"}, "Troponin, cardiac muscle": {"biological_target": "Troponin, cardiac muscle (Homo sapiens, UniProt P19429+P45379+P63316)", "assay": "inhibitors of cardiac thin filament calcium sensitivity, dose response, biochemical, fluorescence, cardiac regulated thin filaments, triplicate IC50 (AID 504742)", "type": "protein-complex assay"}, "[10]": {"biological_target": "Beta-adrenergic receptor kinase 1 (Homo sapiens, UniProt P25098)", "assay": "aptamer displacement from bead-bound GRK2 – biochemical, cherry pick 1, bead flow cytometry, dose response (AID 504500)"}, "[11]": {"biological_target": "DNA (cytosine-5)-methyltransferase 1 (Homo sapiens, UniProt P26358)", "assay": "DNMT1 methyltransferase inhibitors, confirmation, biochemical, fluorescent molecular beacon (AID 602386)", "type": "functional"}, "[12]": {"biological_target": "T6, Rac GTPase-activating protein 1 (Homo sapiens, UniProt Q9H0H5)", "T6 sequence (Q9H0H5 whole entry)": "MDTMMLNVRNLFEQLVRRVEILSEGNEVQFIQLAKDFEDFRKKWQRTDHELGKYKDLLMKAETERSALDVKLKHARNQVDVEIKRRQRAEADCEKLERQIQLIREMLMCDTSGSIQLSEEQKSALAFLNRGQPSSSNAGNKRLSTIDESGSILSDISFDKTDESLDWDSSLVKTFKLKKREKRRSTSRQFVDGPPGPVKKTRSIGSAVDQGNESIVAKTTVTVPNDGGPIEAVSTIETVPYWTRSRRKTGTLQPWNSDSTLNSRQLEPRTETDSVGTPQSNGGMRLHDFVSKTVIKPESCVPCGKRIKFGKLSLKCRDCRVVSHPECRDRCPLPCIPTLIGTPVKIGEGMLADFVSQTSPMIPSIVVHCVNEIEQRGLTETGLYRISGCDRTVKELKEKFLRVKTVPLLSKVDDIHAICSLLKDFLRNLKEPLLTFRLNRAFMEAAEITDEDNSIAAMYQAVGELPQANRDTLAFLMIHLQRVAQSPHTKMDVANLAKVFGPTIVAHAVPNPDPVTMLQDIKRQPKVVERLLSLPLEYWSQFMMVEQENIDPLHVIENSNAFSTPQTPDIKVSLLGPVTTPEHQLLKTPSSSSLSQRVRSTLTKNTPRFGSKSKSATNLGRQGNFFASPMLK", "assay": "MgcRacGAP GTPase-activating activity inhibitors, confirmation, biochemical, ADP Hunter fluorescence, primary and confirmatory (AID 624330)", "type": "functional"}, "[13]": {"biological_target": "T7, Histone-lysine N-methyltransferase NSD2 (Homo sapiens, UniProt O96028)", "T7 sequence (O96028 whole entry)": "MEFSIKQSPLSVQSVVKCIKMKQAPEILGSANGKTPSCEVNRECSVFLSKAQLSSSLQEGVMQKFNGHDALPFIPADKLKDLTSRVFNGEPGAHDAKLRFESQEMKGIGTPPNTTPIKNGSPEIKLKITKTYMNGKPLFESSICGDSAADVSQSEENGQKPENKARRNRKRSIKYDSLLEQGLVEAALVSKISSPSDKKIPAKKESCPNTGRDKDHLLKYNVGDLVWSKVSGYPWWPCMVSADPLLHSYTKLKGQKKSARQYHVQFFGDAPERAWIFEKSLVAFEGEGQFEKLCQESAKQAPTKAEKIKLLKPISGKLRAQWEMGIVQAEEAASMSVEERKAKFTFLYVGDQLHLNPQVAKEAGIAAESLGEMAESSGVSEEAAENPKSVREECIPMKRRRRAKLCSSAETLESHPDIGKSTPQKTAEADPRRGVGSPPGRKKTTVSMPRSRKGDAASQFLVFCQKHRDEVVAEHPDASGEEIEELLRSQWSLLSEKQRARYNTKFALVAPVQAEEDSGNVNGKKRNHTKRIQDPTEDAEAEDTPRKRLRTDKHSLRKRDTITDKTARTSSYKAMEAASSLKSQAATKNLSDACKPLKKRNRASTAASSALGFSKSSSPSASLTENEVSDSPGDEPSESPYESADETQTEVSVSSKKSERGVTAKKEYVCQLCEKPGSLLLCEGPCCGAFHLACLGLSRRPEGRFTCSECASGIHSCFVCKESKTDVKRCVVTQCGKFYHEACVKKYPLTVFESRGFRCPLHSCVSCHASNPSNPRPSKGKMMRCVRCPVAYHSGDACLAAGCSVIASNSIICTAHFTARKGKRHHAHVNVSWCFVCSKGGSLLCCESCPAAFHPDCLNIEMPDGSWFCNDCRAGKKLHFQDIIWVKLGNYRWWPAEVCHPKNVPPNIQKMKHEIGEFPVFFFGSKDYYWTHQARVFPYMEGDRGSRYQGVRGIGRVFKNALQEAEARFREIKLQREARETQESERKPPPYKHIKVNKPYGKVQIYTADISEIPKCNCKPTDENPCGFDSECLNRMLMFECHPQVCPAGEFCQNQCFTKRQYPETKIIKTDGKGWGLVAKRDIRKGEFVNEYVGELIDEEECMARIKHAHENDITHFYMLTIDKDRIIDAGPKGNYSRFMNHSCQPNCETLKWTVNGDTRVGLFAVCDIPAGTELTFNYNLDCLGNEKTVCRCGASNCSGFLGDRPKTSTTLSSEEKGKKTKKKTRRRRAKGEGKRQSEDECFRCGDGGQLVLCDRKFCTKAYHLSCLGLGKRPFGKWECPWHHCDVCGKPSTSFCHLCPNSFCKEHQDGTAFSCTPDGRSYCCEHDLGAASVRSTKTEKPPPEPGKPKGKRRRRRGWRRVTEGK", "type": "biochemical"}, "[14]": {"assay": "THP-1 cell cytotoxicity, dose response, cytotoxicity control for Vif-APOBEC3G degradation inhibitor project, THP-1 cells (AID 1117359)", "type": "functional", "conditions": "Human immunodeficiency virus 1, THP-1"}, "[15]": {"biological_target": "Beta-2 adrenergic receptor (Homo sapiens, UniProt P07550)", "sequence (P07550 whole entry)": "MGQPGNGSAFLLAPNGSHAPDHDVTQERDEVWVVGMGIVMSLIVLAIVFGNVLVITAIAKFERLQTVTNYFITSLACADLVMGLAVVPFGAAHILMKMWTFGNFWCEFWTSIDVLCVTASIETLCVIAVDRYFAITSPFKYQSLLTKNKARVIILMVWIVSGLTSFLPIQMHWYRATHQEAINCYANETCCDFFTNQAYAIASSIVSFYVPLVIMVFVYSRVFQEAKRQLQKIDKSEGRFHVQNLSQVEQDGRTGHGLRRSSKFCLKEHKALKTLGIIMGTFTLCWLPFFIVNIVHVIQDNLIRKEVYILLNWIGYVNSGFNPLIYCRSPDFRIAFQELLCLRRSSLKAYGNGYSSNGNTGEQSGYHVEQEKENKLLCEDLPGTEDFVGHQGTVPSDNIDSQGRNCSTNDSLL", "assay": "beta2AR agonists driving receptor internalization, dose response, cell-based, FAP fluorogen, flow cytometry, cherry pick 1 (AID 588763)", "type": "functional"}},
  "note": "Activity calls are given as the source filed them.",
  "data": [
    {"smiles": "Fc1cccc(-n2cc(-c3ccccc3)c3c(=S)[nH]cnc32)c1", "values": [
      {"measurement": "EC50", "setting": "[1]", "value": "> 180 µM (inactive)"},
      {"measurement": "IC50", "setting": "Bcl-2-related protein A1", "value": "> 20 µM (inactive)"},
      {"measurement": "IC50", "setting": "[2]", "value": "9.98 µM (active)"},
      {"measurement": "IC50", "setting": "[3]", "value": "> 20 µM (inactive)"},
      {"measurement": "EC50", "setting": "[4]", "value": "19.2 µM (active)"}
    ]},
    {"smiles": "CC1=NN(c2cccc(C(=O)O)c2)C(=O)/C1=C\\C=C\\c1ccco1", "values": [
      {"measurement": "IC50", "setting": "[5]", "value": "17.4 µM (active)"},
      {"measurement": "EC50", "setting": "[6]", "value": "19.9 µM (active)"},
      {"measurement": "IC50", "setting": "[7]", "value": "21.7 µM (active)"},
      {"measurement": "EC50", "setting": "[8]", "value": "23.7 µM (inconclusive)"},
      {"measurement": "IC50", "setting": "Large T antigen", "value": "27.6 µM (active)"},
      {"measurement": "IC50", "setting": "[9]", "value": "4.73 µM (active)"},
      {"measurement": "AC50", "setting": "ORF 73", "value": "18 µM (active)"},
      {"measurement": "IC50", "setting": "Troponin, cardiac muscle", "value": "15 µM (inactive)"},
      {"measurement": "EC50", "setting": "[10]", "value": "14.8 µM (inactive)"},
      {"measurement": "IC50", "setting": "[11]", "value": "1.18 µM (active)"},
      {"measurement": "IC50", "setting": "[12]", "value": "66.7 µM (active)"},
      {"measurement": "AC50", "setting": "[13]", "value": "2.19 µM (active)"},
      {"measurement": "CC50", "setting": "[14]", "value": "> 40 µM (active)"}
    ]},
    {"smiles": "CCOC(=O)N1CCN(c2nnc(-c3ccc(C)cc3)c3ccccc23)CC1", "values": [
      {"measurement": "EC50", "setting": "[15]", "value": "1.04 µM (active)"}
    ]}
  ]
}
